In patent publication US20260285847A1, “SYMMETRIC AMINOINDOLE-LINKED TRIAZINE FOR A DUAL EFFECT ON ALPHA-SYNUCLEIN AND TAU ISOFORM 2N4R FIBRILLIZATION” (Purdue Research Foundation, priority 2023, published 2026):
Entries after “also recorded” stand apart in the source; their conditions may differ.

System: paired helical filaments isolated from AD brains
Assay: Ex vivo disaggregation of paired helical filaments (TEM)
Set-up: species or system human
Settings: compound 50 μM, 120 hours at 37° C., vs 1.5% DMSO
Source text: Amyloid-β plaques were purified from postmortem human AD brains obtained from patients diagnosed with advanced Alzheimer's (Braak stage V or VI) (Tissue Biobank at Case Western Reserve University-Cleveland Clinic) using ultracentrifugation with a sucrose gradient and cell sorting, as previously published.^38-39 Purified amyloid-β plaques were examined with polarized and fluorescence microscopy (Congo Red and Thioflavin-S staining) and scanning electron microscopy. Each aliquot of amyloid-β plaques was solubilized with 60 μL of 10 mM PBS buffer (pH 7.4). One extraction consisted of 0.28 mg/ml of protein, as measured with nanodrop (A260/280 nm). A volume of 20 μL of extraction was incubated with 1.5% DMSO (control) or compound 10 (50 μM) for 120 hours at 37° C. prior to visualization by transmission electron microscopy.
The protein quantification of the plaques isolated from AD brains were measured with nanodrop. […] Compound 10 was tested at 50 μM based on the protein levels and results obtained with PICUP experiments (FIG. 7). AP-plaque samples were incubated with 1.5% DMSO (control) or compound 10 (50 μM) in 10 mM PBS buffer (pH 7.4) for 120 hours at 37° C. prior to visualization by transmission electron microscopy. During the visualization of the grids, several paired helical filaments were observed.

c1cc(Nc2ncnc(Nc3cccc4[nH]ccc34)n2)c2cc[nH]c2c1 [Compound 10, N2,N4-bis(1H-indol-4-yl)-1,3,5-triazine-2,4-diamine]
disaggregation of paired helical filaments (TEM, in words): shorter paired helical filaments; also recorded: disaggregated human Aβ plaques and NFTs
